# Source: patent US10736831B2, “Oral care compositions” (Colgate-Palmolive Company, priority 2015, dated 2020)
# Tested on: five species mix of representative oral bacterial species
# Test: resazurin cell viability assay (bacterial metabolism/viability)
# Description: A five species mix of representative oral bacterial species was used to simulate the complex bacterial flora of the oral environment. A bacterial mix comprising Actinomyces viscosus, Lactobacillus casei, Streptococcus oralis, Fusobacteriaum nucleatum and Veillonella parvulal was incubated with the compound under investigation for 1 hour at 37° C., neutralized, washed and stained with 50 μg/ml resazurin solution. When viable bacteria are incubated with resazurin, the blue non-fluorescent dye is reduced by the bacteria to pink fluorescent resorufin. Fluorescence of the test sample is read at 560 nm excitation/590 nm emission and compared to the fluorescence of a standardized mixture of live and dead bacteria to determine the percentage of the initial population that is viable after incubation.
# In order to minimize the effects of formula excipients, dilute 1:100 and 1:10 dentifrice slurries of formulations in water were used in the assay. As before, the test compound (as a dilute slurry) was incubated with the bacteria for 1 hour at 37° C., neutralized, washed and stained with 50 μg/ml resazurin solution. The percentage of viable bacteria was then determined.
substance,measurement,setting,value
sodium lauryl ether sulfate [0.5 wt. % SLES],% bacteria viable following treatment,"aqueous test solutions, incubated 1 hour at 37° C., resazurin 50 μg/ml, fluorescence 560/590 nm",19.94%
zinc coceth sulfate [0.5 wt. % ZCS],antibacterial efficacy compared with comparators (in words),"solutions of Example 1, Table 1",significantly more efficacious than surfactant alone or an aqueous solution of 0.8 wt. % total elemental zinc
